The values that follow come from patent publication US12624018B1, “Inhibitors of RIPK2 and medical uses thereof” (Odyssey Therapeutics, Inc., priority 2022, dated 2026).

Bounds are passed on as bounds.

For orientation: IC50 means the concentration that gives 50% inhibition.

In this experiment the target is T1, RIPK2 enzyme (Homo sapiens, UniProt O43353).
T1 construct: purchased Carna 09-128
T1 sequence (O43353 1-299 limits assumed): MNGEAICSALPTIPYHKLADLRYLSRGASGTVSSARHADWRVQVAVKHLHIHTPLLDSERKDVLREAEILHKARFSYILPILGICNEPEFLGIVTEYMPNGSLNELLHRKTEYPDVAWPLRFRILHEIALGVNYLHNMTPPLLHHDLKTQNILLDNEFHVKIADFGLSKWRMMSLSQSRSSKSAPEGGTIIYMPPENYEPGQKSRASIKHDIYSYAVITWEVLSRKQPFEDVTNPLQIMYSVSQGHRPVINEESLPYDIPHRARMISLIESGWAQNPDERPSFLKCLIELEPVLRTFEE
Nature of the experiment: RIPK2 inhibition (ADP-Glo Kinase Assay). The class given is biochemical. The conditions noted are these: RIPK2 5 nM, ATP 150 μM, MBP substrate, read-out: RIPK2 IC50. An outline of the steps:
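Human RIPK2 (5 nM) preincubated with compound 30 min at room temperature in 50 mM HEPES pH 7.5, 10 mM MgCl2, 2 mM DTT, 1 mM EGTA, 0.01% Brij-35, 0.05% BSA; native swine MBP as substrate. ADP formed quantified by ADP-Glo luminescence; percent inhibition relative to DMSO and no-enzyme controls.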
As to `COc1cc2nccc(Oc3ccc(CC(=O)Nc4cnn(C(C)(C)C)c4)c(F)c3)c2cc1S(C)(=O)=O` [Compound 39, N-(1-(tert-butyl)-1H-pyrazol-4-yl)-2-(2-fluoro-4-((7-methoxy-6-(methylsulfonyl)quinolin-4-yl)oxy)phenyl)acetamide], the IC50 was less than 2.5 nM.
With `Cn1nc(NC(=O)Cc2ccc(Oc3ccnc4ccc(S(C)(=O)=O)cc34)cc2F)cc1C(C)(C)C` [Compound 40, N-(5-(tert-butyl)-1-methyl-1H-pyrazol-3-yl)-2-(2-fluoro-4-((6-(methylsulfonyl)quinolin-4-yl)oxy)phenyl)acetamide] the figure was less than 2.5 nM; with `Cn1nc(NC(=O)Cc2ncc(Oc3ccnc4ccc(S(C)(=O)=O)cc34)cc2F)cc1C(C)(C)C` [Compound 41, N-(5-(tert-butyl)-1-methyl-1H-pyrazol-3-yl)-2-(3-fluoro-5-((6-(methylsulfonyl)quinolin-4-yl)oxy)pyridin-2-yl)acetamide], 7.6 nM.
The same measure for `CC(C)(C)c1cc(NC(=O)Cc2ncc(Oc3ccnc4ccc(S(C)(=O)=O)cc34)cc2F)n[nH]1` [Compound 42, N-(5-(tert-butyl)-1H-pyrazol-3-yl)-2-(3-fluoro-5-((6-(methylsulfonyl)quinolin-4-yl)oxy)pyridin-2-yl)acetamide]: 5.5 nM.
With `C[S+]([O-])c1ccc2ncnc(Oc3ccc(CC(=O)Nc4cnn(C(C)(C)C)c4)c(F)c3)c2c1` (stereo not drawn) [Compound 44, N-(1-(tert-butyl)-1H-pyrazol-4-yl)-2-(2-fluoro-4-((6-(methylsulfinyl)quinazolin-4-yl)oxy)phenyl)acetamide] the figure was 26.2 nM; with `C[S+]([O-])c1ccc2nccc(Oc3ccc(CC(=O)Nc4cnn(C(C)(C)C)c4)c(F)c3)c2c1` (stereo not drawn) [Compound 45, N-(1-(tert-butyl)-1H-pyrazol-4-yl)-2-(2-fluoro-4-((6-(methylsulfinyl)quinolin-4-yl)oxy)phenyl)acetamide], less than 2.5 nM.
On to `CC(C)(C)n1cc(NC(=O)Cc2ccc(Oc3ccnc4ccc(S(N)(=O)=O)cc34)cc2F)cn1` [Compound 46, N-(1-(tert-butyl)-1H-pyrazol-4-yl)-2-(2-fluoro-4-((6-sulfamoylquinolin-4-yl)oxy)phenyl)acetamide], for which the 50% inhibitory concentration (IC50) is less than 2.5 nM.
Turning to `COc1ccc2ncnc(Oc3ccc(CC(=O)Nc4cnn(C(C)(C)C)c4)c(F)c3F)c2c1` [Compound 47, N-(1-(tert-butyl)-1H-pyrazol-4-yl)-2-(2,3-difluoro-4-((6-methoxy-quinazolin-4-yl)oxy)phenyl) acetamide], the half-maximal inhibitory concentration (IC50) is 3.9 nM.
With `CCOc1ccc2nccc(Oc3cnc(CC(=O)Nc4cnn(C(C)(C)C)c4)c(F)c3)c2c1` [Compound 48, N-(1-(tert-butyl)-1H-pyrazol-4-yl)-2-(5-((6-ethoxyquinolin-4-yl)oxy)-3-fluoropyridin-2-yl)acetamide] the figure was 9.2 nM; with `CC(C)(C)n1cc(NC(=O)Cc2ccc(Oc3ncnc4ccc(OC5COC5)cc34)cc2F)cn1` [Compound 49, N-(1-(tert-butyl)-1H-pyrazol-4-yl)-2-(2-fluoro-4-((6-(oxetan-3-yloxy)quinazolin-4-yl)oxy)phenyl) acetamide], 18.5 nM.
Take `COCCOc1ccc2ncnc(Oc3ccc(CC(=O)Nc4cnn(C(C)(C)C)c4)c(F)c3)c2c1` [Compound 50, N-(1-(tert-butyl)-1H-pyrazol-4-yl)-2-(2-fluoro-4-((6-(2-methoxy-ethoxy)quinazolin-4-yl)oxy)phenyl) acetamide]: the IC50 came to 15.4 nM.
The same measure for `CC(C)(C)n1cc(NC(=O)Cc2ncc(Oc3ncnc4ccc(OC5CCNCC5)cc34)cc2F)cn1` [Compound 51, N-(1-(tert-butyl)-1H-pyrazol-4-yl)-2-(3-fluoro-5-((6-(piperidin-4-yloxy)quinazolin-4-yl)oxy)pyridin-2-yl)acetamide]: 18.7 nM.
With `CC(C)(C)c1cc(NC(=O)Cc2ncc(Oc3ncnc4ccc(F)cc34)cc2F)ncn1` [Compound 52, N-(6-(tert-butyl)pyrimidin-4-yl)-2-(3-fluoro-5-((6-fluoroquinazolin-4-yl)oxy)pyridin-2-yl)acetamide], the IC50 is 54.1 nM.
The same measure for `Cc1nc(NC(=O)Cc2ncc(Oc3ncnc4ccc(F)cc34)cc2F)cc(C(C)(C)C)n1` [Compound 53, N-(6-(tert-butyl)-2-methylpyrimidin-4-yl)-2-(3-fluoro-5-((6-fluoroquinazolin-4-yl)oxy)pyridin-2-yl)acetamide]: 225 nM; for `Cc1cc(CC(=O)Nc2cc(C(C)(C)C)ncn2)ccc1Oc1ncnc2ccc(F)cc12` [Compound 54, N-(6-(tert-butyl)pyrimidin-4-yl)-2-(4-((6-fluoroquinazolin-4-yl)oxy)-3-methylphenyl) acetamide]: 54.1 nM; for `Cc1cc(CC(=O)Nc2cc(C(C)(C)C)cnn2)ccc1Oc1ncnc2ccc(F)cc12` [Compound 55, N-(5-(tert-butyl)pyridazin-3-yl)-2-(4-((6-fluoroquinazolin-4-yl)oxy)-3-methylphenyl) acetamide]: 24.5 nM.
Consider `CCN1CCC(Oc2ccc3ncnc(Oc4cnc(CC(=O)Nc5cnn(C(C)(C)C)c5)c(F)c4)c3c2)CC1` [Compound 56, N-(1-(tert-butyl)-1H-pyrazol-4-yl)-2-(5-((6-((1-ethylpiperidin-4-yl)oxy)quinazolin-4-yl)oxy)-3-fluoropyridin-2-yl)acetamide], for which the 50% inhibitory concentration (IC50) amounted to 4.9 nM.
With `CN1CCC(Oc2ccc3ncnc(Oc4cnc(CC(=O)Nc5cc(C(C)(C)C)[nH]n5)c(F)c4)c3c2)CC1` [Compound 57, N-(5-(tert-butyl)-1H-pyrazol-3-yl)-2-(3-fluoro-5-((6-((1-methylpiperidin-4-yl)oxy)quinazolin-4-yl)oxy)pyridin-2-yl)acetamide] the figure was less than 2.5 nM; with `CC(C)(C)c1cc(NC(=O)Cc2ncc(Oc3ncnc4ccc(OC5CCNCC5)cc34)cc2F)n[nH]1` [Compound 58, N-(5-(tert-butyl)-1H-pyrazol-3-yl)-2-(3-fluoro-5-((6-(piperidin-4-yloxy)quinazolin-4-yl)oxy)pyridin-2-yl)acetamide], 3.7 nM; with `CN1CC[C@H](Oc2ccc3ncnc(Oc4cnc(CC(=O)Nc5cnn(C(C)(C)C)c5)c(F)c4)c3c2)C1` [Compound 59, (S)-N-(1-(tert-butyl)-1H-pyrazol-4-yl)-2-(3-fluoro-5-((6-((1-methylpyrrolidin-3-yl)oxy)quinazolin-4-yl)oxy)pyridin-2-yl)acetamide], 41.5 nM.
With `CN1CC[C@@H](Oc2ccc3ncnc(Oc4cnc(CC(=O)Nc5cnn(C(C)(C)C)c5)c(F)c4)c3c2)C1` [Compound 60, (R)-N-(1-(tert-butyl)-1H-pyrazol-4-yl)-2-(3-fluoro-5-((6-((1-methylpyrrolidin-3-yl)oxy)quinazolin-4-yl)oxy)pyridin-2-yl)acetamide] the figure was 45.7 nM; with `CN1CCC(COc2ccc3ncnc(Oc4cnc(CC(=O)Nc5cnn(C(C)(C)C)c5)c(F)c4)c3c2)CC1` [Compound 61, N-(1-(tert-butyl)-1H-pyrazol-4-yl)-2-(3-fluoro-5-((6-((1-methylpiperidin-4-yl)methoxy)quinazolin-4-yl)oxy)pyridin-2-yl)acetamide], 13.3 nM.
As to `CN1[C@@H]2CC[C@H]1C[C@@H](Oc1ccc3ncnc(Oc4cnc(CC(=O)Nc5cnn(C(C)(C)C)c5)c(F)c4)c3c1)C2` [Compound 62, N-(1-(tert-butyl)-1H-pyrazol-4-yl)-2-(3-fluoro-5-((6-(((1R,3r,5S)-8-methyl-8-azabicyclo [3.2.1]octan-3-yl)oxy)quinazolin-4-yl)oxy)pyridin-2-yl)acetamide], the IC50 was 13.2 nM.
With `CC(C)(C)n1cc(NC(=O)Cc2ncc(Oc3ncnc4ccc(O[C@@H]5CCOC5)cc34)cc2F)cn1` [Compound 63, (R)-N-(1-(tert-butyl)-1H-pyrazol-4-yl)-2-(3-fluoro-5-((6-((tetrahydrofuran-3-yl)oxy)quinazolin-4-yl)oxy)pyridin-2-yl)acetamide] the figure was 37.3 nM; with `CC(C)(C)n1cc(NC(=O)Cc2ncc(Oc3ncnc4ccc(O[C@H]5CCOC5)cc34)cc2F)cn1` [Compound 64, (S)-N-(1-(tert-butyl)-1H-pyrazol-4-yl)-2-(3-fluoro-5-((6-((tetrahydrofuran-3-yl)oxy)quinazolin-4-yl)oxy)pyridin-2-yl)acetamide], 67.5 nM; with `CC(C)(C)c1cc(NC(=O)Cc2ccc(Oc3ccnc4ccc(S(C)(=N)=O)cc34)cc2F)[nH]n1` (stereo not drawn) [Compound 65, N-(5-(tert-butyl)-1H-pyrazol-3-yl)-2-(2-fluoro-4-((6-(S-methylsulfonimidoyl)quinolin-4-yl)oxy)phenyl) acetamide], less than 2.5 nM.
With `CC(C)(C)n1cc(NC(=O)Cc2ccc(Oc3ccnc4ccc(S5(=O)=NCCC5)cc34)cc2F)cn1` (stereo not drawn) [Compound 66, N-(1-(tert-butyl)-1H-pyrazol-4-yl)-2-(2-fluoro-4-((6-(1-oxido-4,5-dihydro-3H-1λ^6-isothiazol-1-yl)quinolin-4-yl)oxy)phenyl) acetamide] the figure was less than 2.5 nM.
With `CC(C)(C)n1cc(NC(=O)Cc2ccc(Oc3ccnc4ccc(S5(=O)=NCCCC5)cc34)cc2F)cn1` (stereo not drawn) [Compound 67, N-(1-(tert-butyl)-1H-pyrazol-4-yl)-2-(2-fluoro-4-((6-(1-oxido-3,4,5,6-tetrahydro-1λ^6,2-thiazin-1-yl)quinolin-4-yl)oxy)phenyl)acetamide] the figure was less than 2.5 nM.
Turning to `CC(C)(C)n1cc(NC(=O)Cc2ccc(Oc3ccnc4ccc(NS(C)(=O)=O)cc34)cc2F)cn1` [Compound 68, N-(1-(tert-butyl)-1H-pyrazol-4-yl)-2-(2-fluoro-4-((6-(methylsulfonamido)quinolin-4-yl)oxy)phenyl)acetamide], the 50% inhibitory concentration (IC50) is less than 2.5 nM.
`CC(C)(C)n1cc(NC(=O)Cc2ccc(Oc3ccnc4ccc(S(C)(=O)=NC#N)cc34)cc2F)cn1` (stereo not drawn) [Compound 71, N-(1-(tert-butyl)-1H-pyrazol-4-yl)-2-(4-((6-(N-cyano-S-methylsulfonimidoyl)quinolin-4-yl)oxy)-2-fluorophenyl)acetamide]: the IC50 was 9.1 nM.
